Reference: patent US4022884A, “Gardimycin and process for producing same” (Gruppo Lepetit S.p.A., priority 1974, dated 1977)

Experiments:
Streptococcus viridans = test: Minimal inhibitory concentration, clinically isolated strains (Table 2); format: cell-based
From the text: (§1) Another favorable characteristic of the antibiotic substance gardimycin is that it is active against clinically isolated Streptococcus strains.

[1] = test system: Streptococcus haemolyticus; test: as above; format: cell-based
From the text: as §1

[2] = test system: clinically isolated Streptococcus strains; test: Activity against clinically isolated Streptococcus strains, general statement; format: cell-based; details: in words
From the text: as §1

Toxicity (LD50) = format: in vivo
[3] = test system: Diplococcus pneumoniae UC 41; test: Experimental infection in mice; format: in vivo
[4] = test system: Streptococcus haemolyticus C 203; test: Experimental infection in mice; format: in vivo
[5] = test system: Streptococcus haemolyticus C 203; test: In vitro minimal inhibitory concentration (Table 1); format: cell-based
From the text: (§2) Metabolite A, metabolite B (hereafter referred to as gardimycin) as well as its salts with alkali and alkali earth metals and metabolite C show good antibacterial in vitro and in vivo activities.

[6] = test system: Streptococcus faecalis ATCC 10541; test: as above; format: cell-based
From the text: as §2

[7] = test system: Micrococcus flavus ATCC 10240; test: as above; format: cell-based
From the text: as §2

[8] = test system: Staphylococcus aureus ATCC 538; test: as above; format: cell-based
From the text: as §2

[9] = test system: Neisseria gonorrheae ATCC 9826; test: as above; format: cell-based
From the text: as §2

[10] = test system: Diplococcus pneumoniae UC 41; test: as above; format: cell-based
From the text: as §2

[11] = Antibacterial in vitro activity, general statement; format: cell-based; details: in words
From the text: as §2

[12] = test system: Clostridium perfringens ISS 30543; format: cell-based
[13] = test system: pathogenic bacteria of the genus Diplococcus and Streptococcus; test: In vivo activity against experimental infections in mice, general statement; details: in words
[14] = Antibacterial in vivo activity, general statement; details: in words
From the text: as §2

With gardimycin the Minimal inhibitory concentration (Streptococcus viridans; clinically isolated strain 2057) was 5 µg/mL, the Minimal inhibitory concentration (Streptococcus viridans; clinically isolated strain 2085) was 2 µg/mL and the Minimal inhibitory concentration ([1]; clinically isolated strain 2078) was 1 µg/mL. The Minimal inhibitory concentration ([1]; clinically isolated strain 2087) was 1 µg/mL, the “activity against clinically isolated Streptococcus strains” value [2] was “active” and the LD50 (Toxicity (LD50); i.p.) was “higher than 1000 mg/Kg”. The LD50 (Toxicity (LD50); i.v.) was “about 2000 mg/Kg”, the toxicity (Toxicity (LD50); in words) was “very low toxicity” and the ED50 [3] was 30 mg/kg. The ED50 [4] was 0.75 mg/kg, the Minimal inhibitory concentration [5] was 2 µg/mL and the Minimal inhibitory concentration [6] was 50 µg/mL. For the same substance, the Minimal inhibitory concentration [7] was 1 µg/mL, the Minimal inhibitory concentration [8] was 50 µg/mL and the Minimal inhibitory concentration [9] was 20 µg/mL. For the same substance, the Minimal inhibitory concentration [10] was 50 µg/mL, the “antibacterial in vitro activity” value [11] was “good” and the Minimal inhibitory concentration [12] was 2 µg/mL. For the same substance, the “in vivo activity against experimental infections” value [13] was “very interesting in vivo activity” and the “antibacterial in vivo activity” value [14] was “good”.
